From ChEMBL document CHEMBL6109109, “Fatty acid binding protein 5 inhibitors as novel anticancer agents against metastatic castration-resistant prostate cancer” (Bioorg Med Chem, 2025)

How the values were obtained:
[1] = Cytotoxicity against mouse RCaP cells assessed as cell growth inhibition at 20 uM measured after 72 hrs by MTT assay relative to control; format: functional; conditions: read-out: GI
PC-3 [2] = assay: Cytotoxicity against human PC-3 cells assessed as cell growth inhibition at 10 uM measured after 72 hrs by MTT assay relative to control; format: functional; conditions: read-out: GI
PC-3 [3] = assay: Synergistic anticancer activity against human PC-3 cells assessed as cell growth inhibition at 5 uM measured after 72 hrs in presence of 10 uM of topotecan by MTT assay relative to control; format: functional; conditions: read-out: GI
[4] = Synergistic anticancer activity against mouse RCaP cells assessed as cell growth inhibition at 5 uM measured after 72 hrs in presence of 0.00001 uM of topotecan by MTT assay relative to control; format: functional; conditions: read-out: GI
[5] = Synergistic anticancer activity against mouse RCaP cells assessed as cell growth inhibition at 20 uM measured after 72 hrs in presence of 0.01 uM of topotecan by MTT assay relative to control; format: functional; conditions: read-out: GI
PC-3 [6] = assay: Synergistic anticancer activity against human PC-3 cells assessed as cell growth inhibition at 5 uM measured after 72 hrs in presence of 0.01 uM of topotecan by MTT assay relative to control; format: functional; conditions: read-out: GI
[7] = Synergistic anticancer activity against mouse RCaP cells assessed as cell growth inhibition at 5 uM measured after 72 hrs in presence of 0.1 uM of topotecan by MTT assay relative to control; format: functional; conditions: read-out: GI
[8] = Synergistic anticancer activity against mouse RCaP cells assessed as cell growth inhibition at 10 uM measured after 72 hrs in presence of 0.001 uM of topotecan by MTT assay relative to control; format: functional; conditions: read-out: GI
[9] = Synergistic anticancer activity against mouse RCaP cells assessed as cell growth inhibition at […] measured after 72 hrs in presence of 0.001 uM of topotecan by MTT assay relative to control; format: functional; conditions: dose 2.5 µM, read-out: GI
PC-3 [10] = assay: Synergistic anticancer activity against human PC-3 cells assessed as cell growth inhibition at 10 uM measured after 72 hrs in presence of 0.00001 uM of topotecan by MTT assay relative to control; format: functional; conditions: read-out: GI
[11] = Synergistic anticancer activity against mouse RCaP cells assessed as cell growth inhibition at 10 uM measured after 72 hrs in presence of 1 uM of topotecan by MTT assay relative to control; format: functional; conditions: read-out: GI
PC-3 [12] = assay: Induction of apoptosis in human PC-3 cells assessed as early apoptotic cells at 15 uM measured after 72 hrs by Annexin V-FITC/propidium iodide staining based FACS analysis (reference value: 0.54%); format: functional
PC-3 [13] = assay: Synergistic anticancer activity against human PC-3 cells assessed as cell growth inhibition at 5 uM measured after 72 hrs in presence of 0.1 uM of topotecan by MTT assay relative to control; format: functional; conditions: read-out: GI
[14] = Synergistic anticancer activity against mouse RCaP cells assessed as cell growth inhibition at […] measured after 72 hrs in presence of 0.01 uM of topotecan by MTT assay relative to control; format: functional; conditions: dose 2.5 µM, read-out: GI
[15] = Cytotoxicity against mouse RCaP cells assessed as cell growth inhibition at […] measured after 72 hrs by MTT assay relative to control; format: functional; conditions: dose 2.5 µM, read-out: GI
PC-3 [16] = assay: Synergistic anticancer activity against human PC-3 cells assessed as cell growth inhibition at 20 uM measured after 72 hrs in presence of 1 uM of topotecan by MTT assay relative to control; format: functional; conditions: read-out: GI
[17] = Synergistic anticancer activity against mouse RCaP cells assessed as cell growth inhibition at […] measured after 72 hrs in presence of 10 uM of topotecan by MTT assay relative to control; format: functional; conditions: dose 2.5 µM, read-out: GI
PC-3 [18] = assay: Induction of apoptosis in human PC-3 cells assessed as viable cells at 15 uM measured after 72 hrs by Annexin V-FITC/propidium iodide staining based FACS analysis (reference value: 97.62%); format: functional; conditions: read-out: Activity
[19] = Synergistic anticancer activity against mouse RCaP cells assessed as cell growth inhibition at 10 uM measured after 72 hrs in presence of 10 uM of topotecan by MTT assay relative to control; format: functional; conditions: read-out: GI
PC-3 [20] = assay: Induction of apoptosis in human PC-3 cells assessed as necrotic cells at 15 uM measured after 72 hrs by Annexin V-FITC/propidium iodide staining based FACS analysis (reference value: 0.11%); format: functional
[21] = Synergistic anticancer activity against mouse RCaP cells assessed as cell growth inhibition at 10 uM measured after 72 hrs in presence of 0.01 uM of topotecan by MTT assay relative to control; format: functional; conditions: read-out: GI
PC-3 [22] = assay: Induction of apoptosis in human PC-3 cells assessed as late apoptotic cells at 15 uM measured after 72 hrs by Annexin V-FITC/propidium iodide staining based FACS analysis (reference value: 1.73%); format: functional
PC-3 [23] = assay: Synergistic anticancer activity against human PC-3 cells assessed as cell growth inhibition at 20 uM measured after 72 hrs in presence of 0.0001 uM of topotecan by MTT assay relative to control; format: functional; conditions: read-out: GI
[24] = Synergistic anticancer activity against mouse RCaP cells assessed as cell growth inhibition at 5 uM measured after 72 hrs in presence of 0.0001 uM of topotecan by MTT assay relative to control; format: functional; conditions: read-out: GI
[25] = Cytotoxicity against mouse RCaP cells assessed as cell growth inhibition at 10 uM measured after 72 hrs by MTT assay relative to control; format: functional; conditions: read-out: GI
PC-3 [26] = assay: Synergistic anticancer activity against human PC-3 cells assessed as cell growth inhibition at 10 uM measured after 72 hrs in presence of 10 uM of topotecan by MTT assay relative to control; format: functional; conditions: read-out: GI
PC-3 [27] = assay: Synergistic anticancer activity against human PC-3 cells assessed as cell growth inhibition at 20 uM measured after 72 hrs in presence of 0.01 uM of topotecan by MTT assay relative to control; format: functional; conditions: read-out: GI
[28] = Binding affinity to FABP5 (unknown origin); design: species or system Homo sapiens
[29] = Cytotoxicity against mouse RCap cells assessed as reduction in cell viability measured after 72 hrs by MTT assay; format: functional, cell-based
[30] = Synergistic anticancer activity against mouse RCaP cells assessed as cell growth inhibition at 0.625 uM measured after 72 hrs in presence of 0.0001 uM of topotecan by MTT assay relative to control; format: functional; conditions: read-out: GI
[31] = Cytotoxicity against mouse RCaP cells assessed as cell growth inhibition at 1.25 uM measured after 72 hrs by MTT assay relative to control; format: functional; conditions: read-out: GI
[32] = Synergistic anticancer activity against mouse RCaP cells assessed as cell growth inhibition at 1.25 uM measured after 72 hrs in presence of 0.00001 uM of topotecan by MTT assay relative to control; format: functional; conditions: read-out: GI
[33] = Synergistic anticancer activity against mouse RCaP cells assessed as cell growth inhibition at 1.25 uM measured after 72 hrs in presence of 10 uM of topotecan by MTT assay relative to control; format: functional; conditions: read-out: GI
PC-3 [34] = assay: Synergistic anticancer activity against human PC-3 cells assessed as cell growth inhibition at 1.25 uM measured after 72 hrs in presence of 0.001 uM of topotecan by MTT assay relative to control; format: functional; conditions: read-out: GI
PC-3 [35] = assay: Cytotoxicity against human PC-3 cells assessed as cell growth inhibition at 1.25 uM measured after 72 hrs by MTT assay relative to control; format: functional; conditions: read-out: GI
PC-3 [36] = assay: Synergistic anticancer activity against human PC-3 cells assessed as cell growth inhibition at […] measured after 72 hrs in presence of 0.01 uM of topotecan by MTT assay relative to control; format: functional; conditions: dose 2.5 µM, read-out: GI

| Compound | inhibition of growth at 20 µM [1] | inhibition of growth at 10 µM (PC-3 [2]) | inhibition of growth at 5 µM (PC-3 [3]) | inhibition of growth at 5 µM [4] | inhibition of growth at 20 µM [5] | inhibition of growth at 5 µM (PC-3 [6]) | inhibition of growth at 5 µM [7] | inhibition of growth at 10 µM [8] | inhibition of growth at […] [9] | inhibition of growth at 10 µM (PC-3 [10]) | inhibition of growth at 10 µM [11] | inhibition of growth at 5 µM (PC-3 [13]) | inhibition of growth at […] [14] | inhibition of growth at […] [15] | inhibition of growth at 20 µM (PC-3 [16]) | inhibition of growth at […] [17] | inhibition of growth at 10 µM [19] | inhibition of growth at 10 µM [21] | inhibition of growth at 20 µM (PC-3 [23]) | inhibition of growth at 5 µM [24] | other results |
| --- | --- | --- | --- | --- | --- | --- | --- | --- | --- | --- | --- | --- | --- | --- | --- | --- | --- | --- | --- | --- | --- |
| COc1ccccc1[C@H]1[C@H](C(=O)O)[C@H](c2ccccc2OC)[C@H]1C(=O)OCC1c2ccccc2-c2ccccc21 | 98.2% | 30.1% | 86.4% | 9.57% | 98.2% | 34.6% | 93.6% | 76.7% | 6.8% | 56.3% | 98.3% | 56.3% | 11.7% | 5.2% | 99.8% | 99.6% | 99.2% | 75.2% | 99.8% | 17.6% | Activity (PC-3 [12]): 5.38%; viability at 15 µM (PC-3 [18]): 88.7%; Activity (PC-3 [20]): 0.3%; Activity (PC-3 [22]): 5.63%; inhibition of growth at 10 µM [25]: 64.9%; inhibition of growth at 10 µM (PC-3 [26]): 86.2%; inhibition of growth at 20 µM (PC-3 [27]): 99.8% |
| O=C(O)[C@H]1[C@H](c2ccccc2)[C@H](C(=O)Oc2cc(-c3ccc4c(c3)OCO4)ccc2-c2ccccc2)[C@H]1c1ccccc1 | 94.7% | 57.5% | 80.8% | 27% | 97.8% | 35.2% | 87.2% | 71.9% | 6.33% | 78.9% | 96% | 49.9% | 12.2% | 5.2% | 99.3% | 99.9% | 99.9% | 71.7% | 89% | 24.6% | Ki [28]: 660 nM; IC50 [29]: 12300 nM; inhibition of growth at 10 µM [25]: 58.6%; inhibition of growth at 10 µM (PC-3 [26]): 90.8%; inhibition of growth at 20 µM (PC-3 [27]): 98.2% |
| COc1ccccc1[C@H]1[C@H](C(=O)O)[C@H](c2ccccc2OC)[C@H]1C(=O)Oc1cc(-c2ccc3c(c2)OCO3)ccc1-c1ccccc1 | 99.7% | 66.4% | 92.5% | 27.6% | 100% | 57.7% | 91.9% | 88.4% | 1.77% | 69.5% | 94.8% | 66.6% | 20.6% | 2.8% | 99.1% | 98.9% | 97% | 87.8% | 99.5% | 26.8% | inhibition of growth at 0.625 µM [30]: -3.7%; Ki [28]: 650 nM; inhibition of growth at 1.25 µM [31]: -1.17%; Activity (PC-3 [12]): 20.86%; inhibition of growth at 1.25 µM [32]: -1.87%; IC50 [29]: 3440 nM; inhibition of growth at 1.25 µM [33]: 99.2%; viability at 15 µM (PC-3 [18]): 25.8%; inhibition of growth at 1.25 µM (PC-3 [34]): 33.1%; inhibition of growth at 1.25 µM (PC-3 [35]): -2.3%; Activity (PC-3 [20]): 1.25%; Activity (PC-3 [22]): 52.11%; inhibition of growth at […] (PC-3 [36]): 54.6%; inhibition of growth at 10 µM [25]: 78.2%; inhibition of growth at 10 µM (PC-3 [26]): 92.2%; inhibition of growth at 20 µM (PC-3 [27]): 98.7% |
